Assay results: patent publication US9072774B2, “Porphyrin nanovesicles” (UNIVERSITY HEALTH NETWORK, priority 2009, dated 2015)

Experiment: Differential scanning calorimetry
Assay type: physicochemical
Conditions: 5 mg/ml in PBS, scan rate 1° C./min
Procedure: Samples were placed in a vacuum for 30 min prior to measurement. A scan rate of 1° C./min was used for all samples. PBS was used as the reference and one scan cycle of PBS was used as the baseline. For each lipid, three cooling and heating scans were performed and the results averaged to determine the phase transition temperature of the lipids.

- transition temperature: 24 °C
SMILES: CCCCCCCCCCCCCC(=O)OC[C@H](COP(=O)([O-])OCC[N+](C)(C)C)OC(=O)CCCCCCCCCCCCC [DMPC]
